Reference: patent US20210379068A1, “METHODS AND MATERIALS FOR TREATING NEUROPSYCHIATRIC DISORDERS” (Mayo Foundation for Medical Education and Research, priority 2018, published 2021)
Entries after “also recorded” stand apart in the source; their conditions may differ.

Legend:
Type in all cases: in vivo, mouse
[1] = system: senescent cells in the hypothalamus; test: TAF in hypothalamus close to the 3rd ventricle, INK-ATTAC mice; settings: HFD INK-ATTAC mice, AP20187 vs vehicle
Experimental: (§1) INK-ATTAC mice were injected intraperitoneally (i.p.) with AP20187 (10 mg/kg) or vehicle for 3 days every 2 weeks for a total of 8-10 weeks.
Paraffin sections were deparaffinized with Histoclear and hydrated in an ethanol gradient followed by water and PBS. Antigen was retrieved by incubation in 0.01M citrate buffer (pH 6.0) at 95° C. for 10 minutes. Slides were placed in blocking buffer (1:60 normal goat serum [S-1000, Vector Laboratories] in 0.1% BSA/PBS) for 60 minutes at room temperature. […] Primary antibodies used (Table 2) were diluted in blocking buffer and applied overnight at 4° C. The next day, slides were washed 3 times with PBS and incubated for 30 minutes with secondary goat, anti-rabbit antibody (1:200; Vector Laboratories #BA-1000) for TAF staining or for 60 minutes with secondary Alexa antibody (Table 1). For TAF staining, Fluorescein-Avidin in PBS (1:500; #A-2011, Vector Lab) was applied to each sample for 20 minutes. Slides were washed 3 times in PBS, which was followed by FISH for TAF detection. Briefly, tissues were crosslinked with 4% paraformaldehyde for 20 minutes and dehydrated in graded ethanol. Sections were denatured for 10 minutes at 80° C. in hybridization buffer (70% formamide (Sigma), 25 mM MgCl2, 0.1 M Tris (pH 7.2), and 5% blocking reagent [Roche]) containing 2.5 μg ml^−1 Cy-3-labelled telomere-specific (CCCTAA) peptide nucleic acid probe (Panagene), followed by hybridization for 2 hour at room temperature in the dark. Slides were washed twice with 70% formamide in 2×SSC for 15 minutes, followed by washes in 2×SSC and PBS for 10 minutes. Sections were mounted in Vectashield, DAPI-containing mounting media and imaged.
(§2) A single, 3 μm-thick section per mouse was used for TAF staining, while for Dcx and Plin2 staining was performed on three 10 μm-thick sections 80 μm-apart. To quantify periventricular lipid accumulation 10-30 images in the periventricular region were taken using the DM5500 widefield fluorescence microscope from Leica with a 10× (for frequency of periventricular glia) or ×40 (for ALISE phenotype of ependymal cells) objective lens. Number of Plin2-positive cells (for frequency of ALISE-positive periventricular glia) or area of Plin2-positive vesicles (for ALISE phenotype of ependymal cells) was assessed using ImageJ software. For identity assessment of Plin2+ cells, 10 μm-thick sections were stained with combination of antibodies for Iba1 (secondary antibody conjugated with Alexa Fluor 488), Plin2 (secondary antibody conjugated with Alexa Fluor 594), and Vimentin (secondary antibody conjugated with Alexa Fluor 647) and quantified for frequency of Plin2+ astrocytes (Iba1−, Vim+) and microglia (Iba1+) in the periventricular region. A separate staining for Plin2 (secondary antibody conjugated with Alexa Fluor 594) and NeuN (secondary antibody conjugated with Alexa Fluor 647) was used to determine frequency of Plin2+ neurons in periventricular region. For TAF quantification in depth Z stacking was used (images were captured as stacks separated by 0.4 μm with ×63 objective) followed by ImageJ analysis.

INK-ATTAC mice = test: Stone's T-maze, INK-ATTAC mice treated with AP20187; settings: chow/HFD INK-ATTAC mice; AP20187 vs vehicle
Experimental: as §1
A water-motivated version of the Stone's T-maze was used to measure parameters of cognition. A straight run (for pre-training) or Stone's T-maze were placed into a steel pan filled with water to a depth of approximately 3 cm so that half the height of the interior walls of the maze were under water. The ceilings of both the straight run and maze were covered with clear acrylic to prevent mice from rearing out of the water. These dimensions created a situation that enables the mice to maintain contact with the floor while keeping their heads above water. The mice were placed into a start box and were pushed into the maze using a sliding panel. At the end of the straight run or maze there was a goal box that contains a ramp to a dry floor, which allows the mice to escape from the water upon successful completion of the straight run or maze. On day one, mice underwent straight run training to establish the concept that moving forward allows them to escape the water by reaching a water-free goal box. Successful completion of this phase requires the mice to reach the goal box in 10 seconds or faster in 8 out of 10 trials. […] Maze training commenced the following day. Mice had to complete 9 maze acquisition trials in a single day. […]

db/db mice = test: Open field test, off-target effects of AP in db/db mice; settings: AP 10 mg/kg i.p. 3 days every 2 weeks for 8 weeks
Experimental: For off target effect measurements db/db and HDF mice (fed with HFD for 2 months prior treatment) were injected intraperitoneally (i.p.) with […] at 10 mg/kg or vehicle for 3 days every 2 weeks for 8 weeks.
Locomotor activity and anxiety-like behavior of mice were assessed in sound-insulated, rectangular activity chambers (Med Associates Inc., St Albans, Vt., USA: W×L×D=27 cm×27 cm×20 cm with continually running fans, infrared lasers, and sensors). Beam breaks were assessed in 2-minute bins over 30 minutes, converted automatically to current mouse location and distance travelled (cm), and recorded on a computer with Med-PC software Version 4.0. Before the test, mice were acclimatized to the room for 1-1.5 hours before being introduced into the chambers. Mice were habituated for 5 minutes in the Open Field chamber (without recording) then placed for another 5 minutes in the home cage. Afterwards, mice were introduced back to the chambers and all mouse movements were recorded for 30 minutes. Anxiety was quantified by the distance mice travelled in the central 25% of the chamber (zone 1) as a function of the total distance mice travelled and by frequencies of entries into zone 1.

[2] = system: senescent cells in the amygdala; test: Telomere associated foci (TAF) in basomedial layer of the amygdala, INK-ATTAC mice; settings: HFD INK-ATTAC mice, AP20187 vs vehicle
Experimental: as §1
Paraffin sections were deparaffinized with Histoclear and hydrated in an ethanol gradient followed by water and PBS. Antigen was retrieved by incubation in 0.01M citrate buffer (pH 6.0) at 95° C. for 10 minutes. Slides were placed in blocking buffer (1:60 normal goat serum [S-1000, Vector Laboratories] in 0.1% BSA/PBS) for 60 minutes at room temperature. […] Primary antibodies used (Table 2) were diluted in blocking buffer and applied overnight at 4° C. The next day, slides were washed 3 times with PBS and incubated for 30 minutes with secondary goat, anti-rabbit antibody (1:200; Vector Laboratories #BA-1000) for TAF staining or for 60 minutes with secondary Alexa antibody (Table 1). For TAF staining, Fluorescein-Avidin in PBS (1:500; #A-2011, Vector Lab) was applied to each sample for 20 minutes. Slides were washed 3 times in PBS, which was followed by FISH for TAF detection. […]
as §2, with “A separate staining for Plin2 (secondary antibody conjugated with Alexa Fluor 594) and NeuN (secondary antibody conjugated with Alexa Fluor 647) was used to determine frequency of Plin2+ neurons in periventricular region. For TAF quantification in depth Z stacking was used (images were captured as stacks separated by 0.4 μm with ×63 objective) followed by ImageJ analysis.” left out

CC[C@H](C(=O)N1CCCC[C@H]1C(=O)O[C@H](CCc1ccc(OC)c(OC)c1)c1cccc(OCC(=O)NCC(CNC(=O)COc2cccc([C@@H](CCc3ccc(OC)c(OC)c3)OC(=O)[C@@H]3CCCCN3C(=O)[C@@H](CC)c3cc(OC)c(OC)c(OC)c3)c2)CN(C)C)c1)c1cc(OC)c(OC)c(OC)c1 [AP]
% of NeuN-neg cells with 2 or more TAF, hypothalamus close to the 3rd ventricle [1]: significant decrease | % of NeuN-pos cells with 2 or more TAF, hypothalamus close to the 3rd ventricle [1]: significant decrease | mean number of TAF in NeuN-neg cells, hypothalamus close to the 3rd ventricle [1]: significantly reduced | mean number of TAF in NeuN-pos cells, hypothalamus close to the 3rd ventricle [1]: significantly reduced | % of NeuN-neg cells with 2 or more TAF, hypothalamus close to the 3rd ventricle ([1]; listed as AP20187): significantly reduced | % of NeuN-pos cells with 2 or more TAF, hypothalamus close to the 3rd ventricle ([1]; listed as AP20187): significantly reduced | short-term memory (Stone's maze: time to finish, frequency of errors) (INK-ATTAC mice): not affected; also recorded: not altered | anxiety-like behavior by open field test, off-target control (db/db mice): no difference; also recorded: No off-target effects | % of NeuN-pos cells with 2 or more TAF (TAF positive neurons), basomedial layer of the amygdala [2]: significant decrease | mean number of TAF in NeuN-pos cells, basomedial layer of the amygdala [2]: significantly reduced | % of NeuN-pos cells with 2 or more TAF (TAF positive neurons), basomedial layer of the amygdala ([2]; listed as AP20187): significantly reduced
